Active and inactive are the calls of the source. The calls are words filed in the database; no cut-off is given here.
Experiments:
[1] = target: T1, Lysine-specific demethylase 5B (Homo sapiens, UniProt Q9UGL1); experiment: Inhibition of KDM5B (unknown origin)
MCF7 = experiment: Antitumor activity against human MCF7 cells assessed as inhibition of cell proliferation incubated for 72 hrs by MTT assay; assay type: functional, cell-based; conditions: MCF7, 72 h
MGC-803 = experiment: Antitumor activity against human MGC-803 cells assessed as inhibition of cell proliferation incubated for 72 hrs by MTT assay; assay type: functional, cell-based; conditions: MGC-803, 72 h
DU-145 = experiment: Antiproliferative activity against human DU-145 cells assessed as inhibition of cell proliferation incubated for 72 hrs by MTT assay; assay type: functional, cell-based; conditions: DU-145, 72 h
[2] = target: T1, Lysine-specific demethylase 5B; experiment: Binding affinity to KDM5B in human PC-3 cells assessed as thermal stability by measuring KDM5B expression level preincubated with compound for 6 hrs followed by 20 mins incubation under 46 to 56 degreeC by CETSA based Western blot analysis; assay type: cell-based; conditions: time 380.0 min
[3] = MRT (0 to t) in ICR mouse at 25 mg/kg, IG measured at 0.083 to 24 hrs by LC-MS analysis; assay type: ADME, organism-based; conditions: in vivo, po, time 0.083-24 hrs
[4] = AUC (0 to t) in ICR mouse at 25 mg/kg, IG measured at 0.083 to 24 hrs by LC-MS analysis; assay type: ADME, organism-based; set-up: dose 25 mg/kg, time upper 24 hrs, time lower 0.083 hrs, route ig; conditions: in vivo, po
[5] = target: T1, Lysine-specific demethylase 5B; experiment: Inhibition of KDM5B in human PC-3 cells assessed as H3K4me1 accumulation incubated for 72 hrs by Western blot analysis; assay type: cell-based
[6] = target: T1, Lysine-specific demethylase 5B; experiment: Inhibition of KDM5B in human PC-3 cells assessed as H3K4me2 accumulation incubated for 72 hrs by Western blot analysis; assay type: cell-based
[7] = target: T1, Lysine-specific demethylase 5B; experiment: Inhibition of KDM5B in human PC-3 cells assessed as H3K4me3 accumulation incubated for 72 hrs by Western blot analysis; assay type: cell-based
LNCaP = experiment: Inhibition of colony formation in human LNCaP cells incubated for 72 hrs by crystal violet staining based microplate reader analysis; assay type: functional, cell-based
PC-3 [8] = experiment: Induction of cell cycle arrest in human PC-3 cells assessed as increase in G2/M phase cell ratio at 5 uM incubated for 24 hrs by PI/RNase A staining based flow cytometric analysis (reference value: 16.07%); assay type: functional
PC-3 [9] = experiment: Induction of cell cycle arrest in human PC-3 cells assessed as increase in G2/M phase cell ratio at 10 uM incubated for 24 hrs by PI/RNase A staining based flow cytometric analysis (reference value: 16.07%); assay type: functional
PC-3 [10] = experiment: Induction of apoptosis in human PC-3 cells assessed as early apoptotic cells at 2.5 uM incubated for 72 hrs by Annexin V-FITC/PI staining based flow cytometric analysis (reference value: 3.01%); assay type: functional
PC-3 [11] = experiment: Induction of apoptosis in human PC-3 cells assessed as late apoptotic cells at 5 uM incubated for 72 hrs by Annexin V-FITC/PI staining based flow cytometric analysis (reference value: 1.05%); assay type: functional
PC-3 [12] = experiment: Induction of apoptosis in human PC-3 cells assessed as viable cells at 10 uM incubated for 72 hrs by Annexin V-FITC/PI staining based flow cytometric analysis (reference value: 90.93%); assay type: functional; conditions: read-out: Activity
PC-3 [13] = experiment: Induction of apoptosis in human PC-3 cells assessed as early apoptotic cells at 10 uM incubated for 72 hrs by Annexin V-FITC/PI staining based flow cytometric analysis (reference value: 3.01%); assay type: functional
PC-3 [14] = experiment: Induction of apoptosis in human PC-3 cells assessed as late apoptotic cells at 10 uM incubated for 72 hrs by Annexin V-FITC/PI staining based flow cytometric analysis (reference value: 1.05%); assay type: functional
[15] = Oral bioavailability in ICR mouse at 25 mg/kg measured at 0.083 to 24 hrs by LC-MS analysis; assay type: ADME, organism-based; conditions: in vivo, time 0.083-24 hrs
[16] = Tmax in ICR mouse at 5 mg/kg, iv measured at 0.083 to 24 hrs by LC-MS analysis; assay type: ADME, organism-based; conditions: in vivo, time 0.083-24 hrs
[17] = Cmax in ICR mouse at 5 mg/kg, iv measured at 0.083 to 24 hrs by LC-MS analysis; assay type: ADME, organism-based; set-up: time upper 24 hrs, time lower 0.083 hrs, dose 5 mg/kg, route iv; conditions: in vivo
[18] = Apparent volume of distribution in ICR mouse at 5 mg/kg, iv measured at 0.083 to 24 hrs by LC-MS analysis; assay type: ADME, organism-based; conditions: in vivo, time 0.083-24 hrs
[19] = Acute toxicity in Kunming mouse assessed as effect on survival at 2 g/Kg, IG measured after 2 weeks; conditions: in vivo, po, 2000 mg/kg, 336 h
[20] = Acute toxicity in Kunming mouse assessed as effect on behavioral abnormalities at 2 g/Kg, IG measured after 2 weeks; conditions: in vivo, po, 2000 mg/kg, 336 h
[21] = Acute toxicity in Kunming mouse assessed as effect on heart at 2 g/Kg, IG measured after 2 weeks by H&E staining based analysis; assay type: tissue-based; conditions: in vivo, po, 2000 mg/kg, 336 h
[22] = Acute toxicity in Kunming mouse assessed as effect on liver at 2 g/Kg, IG measured after 2 weeks by H&E staining based analysis; assay type: tissue-based; conditions: in vivo, po, 2000 mg/kg, 336 h
PC-3 [23] = experiment: Antitumor activity against human PC-3 cells xenografted in BALB/C nude mice assessed as decrease in tumor volume at 25 to 50 mg/kg, IG administered for 25 days; assay type: functional, organism-based; conditions: dose 25-50 mg/kg, time 25.0 day
[24] = Toxicity in BALB/C nude mouse xenografted with human PC-3 cells assessed as effect on body weight at 25 to 50 mg/kg, IG administered for 25 days; assay type: organism-based; conditions: in vivo, po, 600 h, dose 25-50 mg/kg, time 25 day
[25] = Toxicity in BALB/C nude mouse xenografted with human PC-3 cells assessed as heart damage at 25 to 50 mg/kg, IG administered for 25 days by H&E staining based analysis; assay type: organism-based; conditions: in vivo, po, 600 h, dose 25-50 mg/kg, time 25 day
[26] = Toxicity in BALB/C nude mouse xenografted with human PC-3 cells assessed as lung damage at 25 to 50 mg/kg, IG administered for 25 days by H&E staining based analysis; assay type: organism-based; conditions: in vivo, po, 600 h, dose 25-50 mg/kg, time 25 day
[27] = Toxicity in BALB/C nude mouse xenografted with human PC-3 cells assessed as kidney damage at 25 to 50 mg/kg, IG administered for 25 days by H&E staining based analysis; assay type: organism-based; conditions: in vivo, po, 600 h, dose 25-50 mg/kg, time 25 day
[28] = Toxicity in BALB/C nude mouse xenografted with human PC-3 cells assessed as indistinct prostate tube wall at 25 mg/kg, IG administered for 25 days by H&E staining based analysis; assay type: organism-based; conditions: in vivo, po, 600 h, time 25 day
PC-3 [29] = experiment: Inhibition of PI3K/AKT pathway in human PC-3 cells assessed as decrease in P110alpha level at 2.5 to 5 uM by Western blot analysis; assay type: cell-based; conditions: dose 2.5-5 µM
PC-3 [30] = experiment: Inhibition of PI3K/AKT pathway in human PC-3 cells assessed as decrease in P110alpha level at 20 uM by Western blot analysis relative to control; assay type: cell-based
PC-3 [31] = experiment: Inhibition of PI3K/AKT pathway in human PC-3 cells assessed as decrease in AKT phosphorylation at Ser473 residue at 2.5 to 10 uM by Western blot analysis; assay type: cell-based; conditions: dose 2.5-10 µM
PC-3 [32] = experiment: Inhibition of PI3K/AKT pathway in human PC-3 cells assessed as decrease in AKT phosphorylation at Ser473 residue at 20 uM by Western blot analysis relative to control; assay type: cell-based

T1 sequence (Q9UGL1 whole entry): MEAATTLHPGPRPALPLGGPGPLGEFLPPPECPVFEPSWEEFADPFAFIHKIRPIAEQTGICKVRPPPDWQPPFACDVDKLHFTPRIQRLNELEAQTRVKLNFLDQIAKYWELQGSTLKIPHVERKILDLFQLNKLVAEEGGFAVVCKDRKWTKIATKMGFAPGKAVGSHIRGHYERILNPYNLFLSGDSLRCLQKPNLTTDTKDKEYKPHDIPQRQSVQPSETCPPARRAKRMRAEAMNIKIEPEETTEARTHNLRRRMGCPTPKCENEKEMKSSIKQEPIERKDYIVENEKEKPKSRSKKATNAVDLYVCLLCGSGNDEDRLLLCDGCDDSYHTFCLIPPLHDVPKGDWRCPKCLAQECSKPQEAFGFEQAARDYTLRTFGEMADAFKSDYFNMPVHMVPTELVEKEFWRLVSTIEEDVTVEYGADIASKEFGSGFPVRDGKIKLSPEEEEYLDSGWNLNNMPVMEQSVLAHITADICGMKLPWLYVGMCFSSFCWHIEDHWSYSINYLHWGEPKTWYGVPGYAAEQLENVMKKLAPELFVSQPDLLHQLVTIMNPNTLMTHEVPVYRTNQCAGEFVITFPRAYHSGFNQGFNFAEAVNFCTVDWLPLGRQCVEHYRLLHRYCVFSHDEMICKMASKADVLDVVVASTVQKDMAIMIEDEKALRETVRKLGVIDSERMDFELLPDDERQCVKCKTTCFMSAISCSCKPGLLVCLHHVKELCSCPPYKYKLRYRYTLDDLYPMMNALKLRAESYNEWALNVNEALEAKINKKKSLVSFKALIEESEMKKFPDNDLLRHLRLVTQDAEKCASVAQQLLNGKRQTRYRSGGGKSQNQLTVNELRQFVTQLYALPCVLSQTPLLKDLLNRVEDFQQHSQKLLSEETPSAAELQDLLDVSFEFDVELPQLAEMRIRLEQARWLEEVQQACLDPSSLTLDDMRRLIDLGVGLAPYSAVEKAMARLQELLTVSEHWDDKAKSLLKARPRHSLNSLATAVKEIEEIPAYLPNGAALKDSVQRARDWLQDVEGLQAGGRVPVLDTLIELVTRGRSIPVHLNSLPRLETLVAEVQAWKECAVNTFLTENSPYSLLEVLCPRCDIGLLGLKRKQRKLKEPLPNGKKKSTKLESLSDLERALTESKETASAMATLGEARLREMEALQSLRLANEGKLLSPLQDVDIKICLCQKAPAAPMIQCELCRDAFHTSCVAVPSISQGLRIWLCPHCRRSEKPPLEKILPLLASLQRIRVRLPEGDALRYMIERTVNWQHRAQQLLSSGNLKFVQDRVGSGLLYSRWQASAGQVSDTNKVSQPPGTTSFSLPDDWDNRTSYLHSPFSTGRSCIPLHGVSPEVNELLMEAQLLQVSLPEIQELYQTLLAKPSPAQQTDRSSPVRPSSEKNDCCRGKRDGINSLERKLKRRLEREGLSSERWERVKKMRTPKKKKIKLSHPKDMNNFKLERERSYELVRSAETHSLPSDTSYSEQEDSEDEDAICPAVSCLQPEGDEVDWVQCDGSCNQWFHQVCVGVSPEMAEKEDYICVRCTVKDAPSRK

CN1CCN(CCNC(=O)c2cc(-c3ccc4ccccc4c3)nc3c2cnn3-c2ccccc2)CC1
IC50 [1]: 0.025 µM
IC50 (MCF7): 6.77 µM
IC50 (MGC-803): 6.09 µM
IC50 (DU-145): 9.53 µM
Activity [2]: Active
MRT last [3]: 6.9 h
AUCt [4]: 3024.33 ng·h/mL
inhibition [5]: Dose-Dependent Effect
inhibition [6]: Dose-Dependent Effect
inhibition [7]: Dose-Dependent Effect
inhibition (LNCaP): Dose-Dependent Effect
Activity (PC-3 [8]): 27.47%
Activity (PC-3 [9]): 75.33%
Activity (PC-3 [10]): 0.7%
Activity (PC-3 [11]): 7.54%
viability at 10 µM (PC-3 [12]): 58.8%
Activity (PC-3 [13]): 0.81%
Activity (PC-3 [14]): 16.39%
F [15]: 20.28%
Tmax [16]: 4.98 min
Cmax [17]: 551.67 ng/mL
Vz [18]: 19.51 L/kg
Activity [19]: Non-Toxic
Activity [20]: Non-Toxic
Activity [21]: Non-Toxic
Activity [22]: Non-Toxic
Activity (PC-3 [23]): Active
Activity [24]: Non-Toxic
Activity [25]: Non-Toxic
Activity [26]: Non-Toxic
Activity [27]: Non-Toxic
Activity [28]: Non-Toxic
inhibition (PC-3 [29]): inactive
inhibition (PC-3 [30]): 80%
inhibition (PC-3 [31]): inactive
inhibition (PC-3 [32]): 40%

Reference: ChEMBL document CHEMBL5346927, “Discovery of a novel 1H-pyrazole- [3,4-b] pyridine-based lysine demethylase 5B inhibitor with potential anti-prostate cancer activity that perturbs the phosphoinositide 3-kinase/AKT pathway” (Eur J Med Chem, 2023)
